Assay results: publication PMC6332200, “Isolation and Identification of Cytotoxic Compounds from Aeschynomene fascicularis, a Mayan Medicinal Plant” (Molecules, 2015)
“And” between values parts separate entries of the source, which are not always exact repeats. Identical values can stand only once.

Legend:
[1] = Cytotoxicity MTT assay, MDCK normal cell line; assay type: cell-based; details: dog, MDCK cells (normal cell line), read-out: Cytotoxic activity CC50
Method: (§1) Three types of cancer cell lines obtained from the American Type Culture Collection (ATCC) were cultured: two oral-laryngeal cancer cell lines, nasopharynx carcinoma (KB, ATCC-CCL-17) and laryngeal carcinoma (Hep-2, ATCC-CCL-23); two cervix-uterine cancer cell lines, cervix adenocarcinoma (HeLa, ATCC-CCL-2) and cervix squamous carcinoma (SiHa, ATCC-HTB-35); and two prostate cancer cell lines, prostate carcinoma (DU-145, ATCC-HTB-81) and prostate adenocarcinoma (PC-3, ATCC-CRL-1435); along with one normal cell line (MDCK, ATCC-CCL-34). The cells were cultured in sterile Costar T75 flasks containing DMEM (Gibco, Hong Kong, China), supplemented with fetal bovine serum (10%, v/v), 100 U/mL penicillin G, and […] streptomycin at 37 °C in an atmosphere of 5% CO2 (95% humidity). At 70%–80% confluence, cells were detached from the cultured flask by treatment with 0.05% trypsin-EDTA (Gibco), and a suspension of 5 × 10^4 cells/mL of viable cells was seeded in a 96-well microtiter plate (Costar, Washington, DC, USA) and incubated. Cytotoxicity was assessed by the MTT assay as previously described by Rahman. When cells reached 90% confluence in a microtiter plate, the DMEM was replaced with fresh medium and cells were incubated with compounds at various concentrations. […] The medium was aspirated, and the formazan product was solubilized with acidified isopropanol (0.4 N HCl). The amount of MTT-formazan is directly proportional to the number of living cells and was determined by measuring the optical density (OD) at 590 nm using a bioassay reader (Bio-Rad). All determinations were performed in triplicate. The cytotoxic and antiproliferative activities of tested compounds were calculated as the percentage of cells killed or the percentage of inhibition of cell proliferation, respectively, using the equation: growth inhibition (%) = (ODcontrol − ODsample/ODcontrol) × 100. […] In addition, the level of cytotoxicity on normal cells was evaluated by determining the selectivity index (SI) of each compound, which is calculated as the ratio of cytotoxicity or reduced cell growth on normal cells to cancer cells (SI = normal cells/cancer cells).

[2] = system: Hep-2; assay: Antiproliferative sulforhodamine B assay, Hep-2; assay type: cell-based, human; details: for IC50: Homo sapiens, Hep-2, SRB, 48 h
Method: (§2) Three types of cancer cell lines obtained from the American Type Culture Collection (ATCC) were cultured: two oral-laryngeal cancer cell lines, nasopharynx carcinoma (KB, ATCC-CCL-17) and laryngeal carcinoma (Hep-2, ATCC-CCL-23); two cervix-uterine cancer cell lines, cervix adenocarcinoma (HeLa, ATCC-CCL-2) and cervix squamous carcinoma (SiHa, ATCC-HTB-35); and two prostate cancer cell lines, prostate carcinoma (DU-145, ATCC-HTB-81) and prostate adenocarcinoma (PC-3, ATCC-CRL-1435); along with one normal cell line (MDCK, ATCC-CCL-34). The cells were cultured in sterile Costar T75 flasks containing DMEM (Gibco, Hong Kong, China), supplemented with fetal bovine serum (10%, v/v), 100 U/mL penicillin G, and […] streptomycin at 37 °C in an atmosphere of 5% CO2 (95% humidity). At 70%–80% confluence, cells were detached from the cultured flask by treatment with 0.05% trypsin-EDTA (Gibco), and a suspension of 5 × 10^4 cells/mL of viable cells was seeded in a 96-well microtiter plate (Costar, Washington, DC, USA) and incubated.
(§3) The growth inhibition of cancer cells was evaluated by the sulforhodamine B method. When cells reached 70% confluence in a microtiter plate, the medium was replaced with DMEM 5% FBS and samples at various concentrations. After 48 h, the medium was discarded, and cells were fixed by adding 50 μL of 10% trichloroacetic acid (TCA, Sigma-Aldrich Chemical, St. Louis, MO, USA). The cells were then incubated at 4 °C for 30 min; TCA was drained off, and the plates were left to dry. Then, 50 μL of SRB stain (10 mg of 1% acetic acid, Sigma) were added to each well for 30 min. Finally, the plates were washed four times with 1% acetic acid (100 μL). The OD was measured at 540 nm using an ELISA reader (Bio-Rad). Docetaxel was used as a positive control, whereas cells incubated only with 0.05% of DMSO were used as a negative control. All determinations were performed in triplicate.
(§4) The cytotoxic and antiproliferative activities of tested compounds were calculated as the percentage of cells killed or the percentage of inhibition of cell proliferation, respectively, using the equation: growth inhibition (%) = (ODcontrol − ODsample/ODcontrol) × 100. […] In addition, the level of cytotoxicity on normal cells was evaluated by determining the selectivity index (SI) of each compound, which is calculated as the ratio of cytotoxicity or reduced cell growth on normal cells to cancer cells (SI = normal cells/cancer cells). It is generally considered that biological efficacy is not due to general toxicity when SI ≥ 10 [17].

[3] = Cytotoxicity MTT assay, PC-3 prostate adenocarcinoma; assay type: cell-based, human; details: human, MDCK normal cells versus PC-3 prostate adenocarcinoma cells; CC50 MDCK normal cells / PC-3; read-out: Selectivity index (SI) of cytotoxic activity
Method: as §1

[4] = system: PC-3; assay: as above; assay type: cell-based, human; details: Homo sapiens; PC-3, MTT, 72 h; read-out: Cytotoxic activity CC50
Method: as §1

[5] = system: PC-3; assay: Antiproliferative sulforhodamine B assay, PC-3; assay type: cell-based; details: Homo sapiens; PC-3, SRB, 48 h
Method: as §2, §3, §4

[6] = system: SiHa; assay: Antiproliferative sulforhodamine B assay, SiHa; assay type: cell-based, human; details: for IC50: Homo sapiens, SiHa, SRB, 48 h; for Selectivity index (SI) of antiproliferative activity: IC50 MDCK normal cells / SiHa
Method: as §2, §3, §4

[7] = system: DU-145; assay: Antiproliferative sulforhodamine B assay, DU-145; assay type: cell-based, human; details: for IC50: Homo sapiens, DU-145, SRB, 48 h
Method: as §2, §3, §4

[8] = Cytotoxicity MTT assay, DU-145 prostate carcinoma; assay type: cell-based, human; details: human, MDCK normal cells versus DU-145 prostate carcinoma cells; CC50 MDCK normal cells / DU-145; read-out: Selectivity index (SI) of cytotoxic activity
Method: as §1

[9] = system: DU-145; assay: Cytotoxicity MTT assay, DU-145 prostate carcinoma; assay type: cell-based, human; details: Homo sapiens; DU-145, MTT, 72 h; read-out: Cytotoxic activity CC50
Method: as §1

[10] = system: HeLa; assay: Antiproliferative sulforhodamine B assay, HeLa; assay type: cell-based, human; details: for IC50: Homo sapiens, HeLa, SRB, 48 h
Method: as §2, §3, §4

[11] = Cytotoxicity MTT assay, KB nasopharynx carcinoma; assay type: cell-based, human; details: human, MDCK normal cells versus KB nasopharynx carcinoma cells; CC50 MDCK normal cells / KB; read-out: Selectivity index (SI) of cytotoxic activity
Method: as §1

[12] = system: KB; assay: Cytotoxicity MTT assay, KB nasopharynx carcinoma; assay type: cell-based, human; details: Homo sapiens; KB, MTT, 72 h; read-out: Cytotoxic activity CC50
Method: as §1

[13] = Cytotoxicity MTT assay, Hep-2 laryngeal carcinoma; assay type: cell-based, human; details: dog MDCK normal cells versus Hep-2 laryngeal carcinoma cells; CC50 MDCK normal cells / Hep-2; read-out: Selectivity index (SI) of cytotoxic activity
Method: as §1

[14] = system: Hep-2; assay: Cytotoxicity MTT assay, Hep-2 laryngeal carcinoma; assay type: cell-based, human; details: Homo sapiens; Hep-2, MTT, 72 h; read-out: Cytotoxic activity CC50
Method: as §1

[15] = system: KB; assay: Antiproliferative sulforhodamine B assay, KB; assay type: cell-based, human; details: for IC50: Homo sapiens, KB, SRB, 48 h; for Selectivity index (SI) of antiproliferative activity: IC50 MDCK normal cells / KB
Method: as §2, §3, §4

[16] = system: MDCK; assay: Antiproliferative sulforhodamine B assay, MDCK normal cell line; assay type: cell-based; details: Canis lupus familiaris, SRB, 48 h
Method: as §2, §3, §4

[17] = Cytotoxicity MTT assay, SiHa cervix squamous carcinoma; assay type: cell-based, human; details: human; CC50 MDCK normal cells / SiHa; read-out: Selectivity index (SI) of cytotoxic activity
Method: as §1

[18] = system: SiHa; assay: as above; assay type: cell-based, human; details: Homo sapiens; SiHa, MTT, 72 h; read-out: Cytotoxic activity CC50
Method: as §1

[19] = Cytotoxicity MTT assay, HeLa cervix adenocarcinoma; assay type: cell-based, human; details: human, MDCK normal cells versus HeLa cervix adenocarcinoma cells; CC50 MDCK normal cells / HeLa; read-out: Selectivity index (SI) of cytotoxic activity
Method: as §1

[20] = system: HeLa; assay: Cytotoxicity MTT assay, HeLa cervix adenocarcinoma; assay type: cell-based, human; details: Homo sapiens; HeLa, MTT, 72 h; read-out: Cytotoxic activity CC50
Method: as §1

[21] = system: tested cell lines; assay: Cytotoxicity and antiproliferative bioassays, whole panel of tested cell lines; assay type: cell-based; details: all tested cell lines
Method: as §2, with “At 70%–80% confluence, cells were detached from the cultured flask by treatment with 0.05% trypsin-EDTA (Gibco), and a suspension of 5 × 10^4 cells/mL of viable cells was seeded in a 96-well microtiter plate (Costar, Washington, DC, USA) and incubated.” left out
Cytotoxicity was assessed by the MTT assay as previously described by Rahman. […] The amount of MTT-formazan is directly proportional to the number of living cells and was determined by measuring the optical density (OD) at 590 nm using a bioassay reader (Bio-Rad). […]
The growth inhibition of cancer cells was evaluated by the sulforhodamine B method. […] The OD was measured at 540 nm using an ELISA reader (Bio-Rad). […]

IC50 [5] | IC50 [7] | IC50 [10] | IC50 [15] | Structure (SMILES) | CC50 at 72 h [1] | IC50 [2] | selectivity ratio at 72 h [3] | CC50 [4] | IC50 [6] | Selectivity index (SI) of antiproliferative activity [6] | selectivity ratio at 72 h [8] | CC50 [9] | selectivity ratio at 72 h [11] | CC50 [12] | selectivity ratio at 72 h [13] | CC50 [14] | IC50 [16] | selectivity ratio at 72 h [17] | CC50 [18] | CC50 [20] | further results
> 100 µM | > 100 µM | > 100 µM | > 100 µM | C=CC(C)(C)c1cc(C2COc3cc(O)ccc3C2)c(O)c(O)c1OC (stereo not drawn) [Compound 4, secundiflorol G] | 29.7 µg/mL and 83.4 µM | > 100 µM | 1.8 | 16.5 µg/mL and 46.4 µM | 21.2 µg/mL and 60 µM | 1.2 | 1.3 | 21.5 µg/mL and 60.6 µM | 5.5 | 5.3 µg/mL and 15 µM | 7.6 | 3.9 µg/mL and 11 µM | 25.4 µg/mL and 72 µM | 2 | 14.7 µg/mL and 41.3 µM | 8.1 µg/mL and 23 µM | selectivity ratio at 72 h [19]: 3.6
> 100 µM | > 100 µM | > 100 µM | 6 µg/mL and 16 µM | CC(C)=CCc1cc(C(=O)/C=C/c2ccccc2)c(O)c(CC=C(C)C)c1O [Compound 2, spinochalcone A] | 92.1 µg/mL and 245 µM | > 100 µM | 9.4 | 9.7 µg/mL and 26 µM | > 100 µM |  | 15 | 6.1 µg/mL and 16.3 µM |  | > 100 µg/mL |  | > 100 µg/mL | 18.7 µg/mL and 50 µM |  | > 100 µg/mL | > 100 µg/mL | Selectivity index (SI) of antiproliferative activity [15]: 3.1
0.007 µg/mL and 10 nM | 0.01 µg/mL and 20 nM | 0.03 µg/mL and 40 nM | 0.04 µg/mL and 60 nM | CC(=O)O[C@@]12CO[C@@H]1C[C@H](O)[C@@]1(C)C(=O)[C@H](O)C3=C(C)[C@@H](OC(=O)[C@H](O)[C@@H](NC(=O)OC(C)(C)C)c4ccccc4)C[C@@](O)([C@@H](OC(=O)c4ccccc4)[C@H]21)C3(C)C [Docetaxel, reference compound] | 1.1 µg/mL and 1.4 µM | 0.05 µg/mL and 70 nM | 14 | 0.07 µg/mL and 100 nM | 0.07 µg/mL and 100 nM | 1.4 | 140 | 0.007 µg/mL and 10 nM | 4.6 | 0.2 µg/mL and 300 nM | 14 | 0.07 µg/mL and 100 nM | 0.11 µg/mL and 140 nM | 6.3 | 0.17 µg/mL and 220 nM | 0.19 µg/mL and 250 nM | Selectivity index (SI) of antiproliferative activity ([2]; IC50 MDCK normal cells / Hep-2): 2.0; Selectivity index (SI) of antiproliferative activity ([7]; IC50 MDCK normal cells / DU-145): 7; Selectivity index (SI) of antiproliferative activity ([10]; IC50 MDCK normal cells / HeLa): 3.5; Selectivity index (SI) of antiproliferative activity [15]: 2.3; selectivity ratio at 72 h [19]: 5.6
> 100 µM | > 100 µM | > 100 µM | > 100 µM | CC(C)=CCc1c(O)c(C(=O)/C=C/c2ccccc2)cc2c1OC(C)(C)C=C2 [Compound 1, spinochalcone C] | > 100 µg/mL | > 100 µM |  | > 100 µg/mL | > 100 µM |  |  | > 100 µg/mL |  | > 100 µg/mL |  | > 100 µg/mL | > 100 µM |  | > 100 µg/mL | > 100 µg/mL | Active concentration on tested cell lines (no activity to the maximum concentration) [21]: > 100 µM
